Data: patent US11141491B2, “PH-sensitive lipid nanoparticles for encapsulation of anticancer drugs and microRNA and use thereof” (National Yang-Ming University, priority 2018, dated 2021)

Columns and labels:
HCT116 cells [1] = assay: Endocytosis mechanisms for uptake of DiI/Lip-RFKH; format: cell-based, human; details: 3 h-incubation, endocytosis inhibitor added
CT26 tumor = assay: In vivo antitumor efficacy, IVIS and PET/CT imaging, body weight in CT26-bearing mice; details: 28 days
Experimental: Male BALB/c mice at the age of 6 weeks with body weights of 20±2 g were purchased from National Laboratory Animal Center (Taipei, Taiwan) and maintained in an individual ventilation cage system. The animals were ensured free access to sterilized food and water. CT-26 (10^5 cells in 0.1 ml PBS) were injected subcutaneously into the right flank of mice to obtain tumor-bearing BALB/c mice. All processes performed on the animals were in accordance with the National Institutes of Health Guide for the Care and Use of Laboratory Animals and were approved by the National Yang-Ming University Animal Committee.
CT-26 cells (10^5 cells in 0.1 ml PBS) were injected subcutaneously into the right flank of mice to obtain tumor-bearing BALB/c mice. When tumor volume reached approximately 100 mm^3 (equation 4), the mice were randomly assigned to six groups (n=5 for each group). […] Mice were injected intravenously (IV) with Iri at 100 mg/kg and miR-200 at 1.25 mg/kg in different formulations every 7 days for 28 days. Fluorescence images were visualized one day after the final treatment using an IVIS […] (Caliper). […]
Tumor images were monitored using PET/CT. […]
Animal body weight and tumor size were detected every 3 or 4 days for 28 days. Tumor size was measured with a digital caliper and the tumor volume (V) was calculated (equation 4).

[2] = Biodistribution of irinotecan in CT26/tk-luc-bearing mice; format: in vivo; details: UV spectrophotometer
Experimental: The biodistribution of irinotecan of different formulations in CT26-bearing mice was analyzed by UV spectrophotometer (*statistical significance at P<0.05; **statistical significance at P<0.01; ***statistical significance at P<0.001).

[3] = pH-sensitive release (dialysis against PBS); format: physicochemical; details: both pH 7.4 and pH 6.5, 37° C.
Experimental: Irinotecan- or miR-loaded formulations were placed in a dialysis bag (1,000-3,500 MWCO) and dialyzed separately against PBS at pH 7.4 and 6.5. At the indicated time, solution was withdrawn from the incubation medium. The irinotecan concentrations were determined by HPLC to calculate the cumulative drug release %.

HCT116 cells [4] = assay: Cell viability, sulforhodamine B assay, HCT116; format: cell-based, human; details: 48 h, SRB
Experimental: The cytotoxicity of formulations in rat small intestinal epithelial IEC-6 cells and human colorectal cancer HCT116 cells was determined using a sulforhodamine B (SRB) assay. After 48-h incubation with various formulations, the cells were stained with SRB for 10 min. The absorbance at 540 nm was detected with a microplate TECAN reader.

[5] = Biochemical tests, H&E staining and TUNEL assay in CT26 tumor-bearing mice; format: in vivo; details: 48 h after last treatment
Experimental: Tumor-bearing mice were treated as described above. Blood samples (170 μl) were taken from the orbital sinus of mice 48 h after the final treatment. After harvesting and centrifugation for 15 min, liver, kidney and heart functions were assessed by detecting the serum levels of glutamate pyruvate transaminase (GPT), creatinine (CRE), and creatine kinase-MB (CK-MB) using corresponding activity assay kits (Fujifilm, Tokyo, Japan) and a clinical dry chemistry analyzer (Fuji Dri-Chem 7000V, Fujifilm Corp.). Additionally, the tumors and intestines were fixed in 4% paraformaldehyde overnight, embedded in paraffin, and cut into 5-μm-thick sections for H&E staining, and the histology of these samples was examined using an Olympus microscope.
TUNEL assay was performed to assess in vivo apoptosis in CT26 tumor-bearing mice at 48 h after last treatment of different formulations.^[42] In brief, the samples were frozen and fixed in 4% paraformaldehyde for 20 min. After washing with PBS for 10 min, the samples were immersed on ice for 2 min. After mixing with reaction dispersion (50 μL) according to the manufacture's manual (In Situ Cell Death Detection Kit, Roche, Germany), the section samples were stained with Hoechst in the nuclei for comparison and monitored using CLSM.

IEC-6 cells = assay: Cell viability, sulforhodamine B assay, IEC-6; format: cell-based, rat; details: noncancerous IEC-6 cells, 48 h, SRB
[6] = Biodistribution of irinotecan in SAS-luc-bearing nude mice; format: in vivo; details: UV spectrophotometer
Experimental: The biodistribution of irinotecan of different formulations in SAS-bearing mice was analyzed with UV spectrophotometer. (*statistical significance at P<0.05; **statistical significance at P<0.01; ***statistical significance at P<0.001).

| Compound | relative fluorescence intensity % of DiI/Lip-RFKH (HCT116 cells [1]) | body weight (CT26 tumor) | biodistribution of irinotecan [2] | release within 24 h [3] [%] | cytotoxicity / viability of HCT116 cells (HCT116 cells [4]; HCT116 cells) | cytotoxicity in HCT116 cells (HCT116 cells [4]; irinotecan at 4×10^−6 M) | serum CKMB level [5] | serum CRE level [5] | serum GPT level [5] | hemolysis (rat blood cells) | cytotoxicity to IEC-6 cells (IEC-6 cells) | biodistribution of irinotecan [6] |
| --- | --- | --- | --- | --- | --- | --- | --- | --- | --- | --- | --- | --- |
| poly-L-lysine | significant decreases |  |  |  |  |  |  |  |  |  |  |  |
| CN(C)CCCN1c2ccccc2Sc2ccc(Cl)cc21 [chlorpromazine] | significant decreases |  |  |  |  |  |  |  |  |  |  |  |
| CCc1c2c(nc3ccc(OC(=O)N4CCC(N5CCCCC5)CC4)cc13)-c1cc3c(c(=O)n1C2)COC(=O)[C@]3(O)CC [irinotecan] |  | continuous decrease | mainly in the liver, kidney, and intestines | 100 | concentration-dependent inhibition | ≈ 20% | provoked | provoked | provoked | ≈ 10% | ≈ 30% | majorly in the liver, kidney, and intestines |
